Peptide text beside a SMILES is read from it. * marks the point of attachment. Cbz = O=C(OCc1ccccc1)*; CH2F = FC*
Assays:
mouse ES cells [1] = experiment: Immunostaining of pluripotent stem cell markers (Sox2, Nanog, Oct4), ES cells; assay type: cell-based; settings: ES cells, BRQ 10 μM
Method: (§1) The cells were fixed and immunostained as described in Kondo et al., Genes Dev. […] For the culture of ES cells and iPS cells, gelatin-coated ones were used.
(§2) For immunostaining, the cells were first washed once with PBS, then fixed by adding 4% paraformaldehyde and incubating for 10 minutes at room temperature. The cells were replaced with PBS containing 0.3% Triton X100 and incubated for 5 minutes at room temperature, then replaced with PBS containing 0.3% Triton X100 and 10% FCS (blocking solution) and incubated for 30 minutes at room temperature. The solution was replaced with primary antibody solution diluted in blocking solution and incubated for 2 hours at room temperature. After washing three times with PBS, secondary antibody and DAPI solution diluted with blocking solution were added and incubated at room temperature for 2 hours. […] Note that the cell nuclei were visualized by contrast staining with DAPI solution (1 μg/mL, manufactured by Dojindo, product code: D523). In addition, fluorescence images were acquired with an Axiolmager M1 microscope (manufactured by Carl Zeiss).
(§3) LMB is a specific inhibitor of CRM1, also known as Exportin 1.

mouse iPS cells [2] = experiment: Immunostaining of pluripotent stem cell markers (Sox2, Nanog, Oct4), iPS cells; assay type: cell-based; settings: iPS cells, BRQ 10 μM
Method: as §1, §2, §3

mouse ES cells [3] = experiment: Nucleoside neutralization experiment (MTT), ES cells; settings: 10 μM BRQ, 3 days, added up to 500 μM
Source text: (§4) Pyrimidine synthesis is regulated by the de novo (de novo synthesis) pathway and salvage pathway. DHODH is a key factor in de novo synthesis, catalyzing the fourth chemical reaction in the synthetic pathway. In view of this, the present inventor investigated whether the effect of eliminating pluripotent stem cells by DHODH inhibitors could be eliminated by adding nucleosides such as uridine, which is the starting material of the salvage pathway.
(§5) In addition, UMP, a product of the pyrimidine synthesis pathway, is converted to UDP and UTP. Furthermore, uridine diphosphate-N-acetylglucosamine (UDP-GlcNac) is also biosynthesized using UTP as a substrate. […] Therefore, the present inventor verified whether the cytotoxic activity of DHODH inhibitors on pluripotent stem cells could also be neutralized by the products from these UMPs.

mouse iPS cells [4] = experiment: Nucleoside neutralization experiment (MTT), iPS cells; settings: 10 μM BRQ, 3 days, added up to 500 μM
Source text: as §4, §5

In the case of `CC(NC(=O)C(NC(=O)OCc1ccccc1)C(C)C)C(=O)NC(CC(=O)O)C(=O)CF` (stereo not drawn) [Z-VAD] (Cbz-Val-Ala-Asp-CH2F; configuration not given here), the “effect on BRQ-dependent cell death” value (mouse ES cells [1]; ZVAD 100 nM) is reported as “slight delay” and the “effect on BRQ-dependent cell death” value (mouse iPS cells [2]; ZVAD 100 nM) is reported as “slight delay”.
In the case of “uridine diphosphate-N-acetylglucosamine [UDP-GlcNac]”, the “neutralizing activity against the cytotoxic activity of BRQ” value (mouse ES cells [3]) is reported as “neutralized” and the “neutralizing activity against the cytotoxic activity of BRQ” value (mouse iPS cells [4]) is reported as “neutralized”.
For `CCC(=C/[C@H](C)C/C=C/C(C)=C/[C@@H](C)C(=O)[C@@H](C)[C@H](O)[C@@H](C)C/C(C)=C/C(=O)O)/C=C/[C@@H]1OC(=O)C=C[C@@H]1C` [LMB, leptomycin B], the “nuclear export of Nanog and Oct4 in cells treated with BRQ” value (mouse ES cells [1]; 2 days, LMB 0.15 nM) was “completely suppressed” and the “nuclear export of Nanog and Oct4 in cells treated with BRQ” value (mouse iPS cells [2]; 2 days, LMB 0.15 nM) was “completely suppressed”.

From patent publication US20220364065A1, “COMPOSITION FOR REMOVING PLURIPOTENT STEM CELLS AND METHOD OF REMOVING PLURIPOTENT STEM CELLS” (NATIONAL UNIVERSITY CORPORATION HOKKAIDO UNIVERSITY, priority 2018, published 2022)
